# Experimental data from ChEMBL document CHEMBL1201862, “PubChem BioAssay data set” (2004).
#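 In this assay, cells in 96-well plates receive the compound at five concentrations for 48 hours. Endpoints are linearly interpolated between the surrounding concentrations. The concentration for 50% growth inhibition is given as GI50.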 The source made the active and inactive calls. Cut-off read from the data, not from the text of the source: active = GI50 up to about 1.1 µM and inactive = higher.
# Assays:
# Test in all cases: DTP human tumour cell line panel, 48 h
# UO-31 = tested on: UO-31
# OVCAR-8 = tested on: OVCAR-8
# HOP-62 = tested on: HOP-62
# OVCAR-3 = tested on: OVCAR-3
# SNB-75 = tested on: SNB-75
# LOX IMVI = tested on: LOX IMVI
# SN12C = tested on: SN12C
# RXF 393 = tested on: RXF 393
# NCI-H226 = tested on: NCI-H226
# SF-539 = tested on: SF-539
# SF-268 = tested on: SF-268
# SR = tested on: SR
# SK-MEL-5 = tested on: SK-MEL-5
# TK-10 = tested on: TK-10
# EKVX = tested on: EKVX
# COLO 205 = tested on: COLO 205
# DU-145 = tested on: DU-145
# Hs-578T = tested on: Hs-578T
# NCI/ADR-RES = tested on: NCI/ADR-RES
Compound,GI50 (UO-31),GI50 (OVCAR-8),GI50 (HOP-62),GI50 (OVCAR-3),GI50 (SNB-75),GI50 (LOX IMVI),GI50 (SN12C),GI50 (RXF 393),GI50 (NCI-H226),GI50 (SF-539),GI50 (SF-268),GI50 (SR),GI50 (SK-MEL-5),GI50 (TK-10),GI50 (EKVX),GI50 (COLO 205),GI50 (DU-145),GI50 (Hs-578T),GI50 (NCI/ADR-RES)
CC1CC[C@]2(C(=O)O)CCC3(C)C(=CC(=O)C4[C@@]5(C)CCC(=O)C(C)(C)C5CC[C@]43C)[C@@H]2[C@H]1C (stereo not given in full),12.5 µM (inactive),29.4 µM (inactive),22.1 µM (inactive),17.4 µM (inactive),35.5 µM (inactive),15.9 µM (inactive),29.9 µM (inactive),17.8 µM (inactive),25.2 µM (inactive),18.9 µM (inactive),54.3 µM (inactive),10.9 µM (inactive),20.7 µM (inactive),28.3 µM (inactive),31.6 µM (inactive),17.6 µM (inactive),,,
C=CCO[C@]1(CC=C)C(=O)C(=O)OC1C1COC(C)(C)O1 (stereo not given in full),84.5 µM (inactive),29.2 µM (inactive),> 100 µM (inactive),45.7 µM (inactive),27.7 µM (inactive),16.9 µM (inactive),34.4 µM (inactive),19.8 µM (inactive),> 100 µM (inactive),> 100 µM (inactive),26.6 µM (inactive),22.9 µM (inactive),36.1 µM (inactive),,> 100 µM (inactive),20.5 µM (inactive),> 100 µM (inactive),74 µM (inactive),37.4 µM (inactive)
COC1(CC[C@@H](C)COC2OC(CO)C(O)C(O)C2O)OC2C[C@H]3[C@@H]4CC[C@H]5C[C@@H](OC6OC(CO)C(OC7OC(CO)C(O)C(O)C7O)C(O)C6OC6OC(C)C(O)C(O)C6O)[C@H](O)C[C@]5(C)[C@H]4CC[C@]3(C)C2[C@@H]1C (stereo not given in full),1.79 µM (inactive),1.99 µM (inactive),1.89 µM (inactive),1.82 µM (inactive),1.77 µM (inactive),1.79 µM (inactive),1.86 µM (inactive),2.04 µM (inactive),2.22 µM (inactive),1.83 µM (inactive),2.07 µM (inactive),2.77 µM (inactive),1.79 µM (inactive),2.12 µM (inactive),2.14 µM (inactive),2.57 µM (inactive),2.01 µM (inactive),2.52 µM (inactive),
NC(=S)N/N=C(\CC1OC(=O)c2ccccc21)c1ccc(Cl)cc1 (stereo not given),24.9 µM (inactive),18 µM (inactive),23.2 µM (inactive),34.6 µM (inactive),49.2 µM (inactive),27.8 µM (inactive),35.2 µM (inactive),25.1 µM (inactive),24.4 µM (inactive),20.8 µM (inactive),36.8 µM (inactive),60.7 µM (inactive),,76.9 µM (inactive),,38.6 µM (inactive),,,
CC(=O)NC(CCCN(Cc1ccccc1)C(=O)N(CCCl)N=O)C(=O)NCc1ccccc1 (stereo not given),43.4 µM (inactive),> 71.1 µM (inactive),7.24 µM (inactive),98.6 µM (inactive),9.02 µM (inactive),2.92 µM (inactive),46.3 µM (inactive),21.8 µM (inactive),44.9 µM (inactive),2.54 µM (inactive),3.89 µM (inactive),3.69 µM (inactive),27.5 µM (inactive),> 85.5 µM (inactive),> 72.9 µM (inactive),> 64.7 µM (inactive),,,
CC1(C)C(=O)C(C)(C)C1=NNC(N)=S,> 100 µM (inactive),> 100 µM (inactive),> 100 µM (inactive),> 100 µM (inactive),> 100 µM (inactive),> 100 µM (inactive),> 100 µM (inactive),> 100 µM (inactive),> 100 µM (inactive),> 100 µM (inactive),> 100 µM (inactive),> 100 µM (inactive),> 100 µM (inactive),> 100 µM (inactive),,> 100 µM (inactive),,,
C=CC[C@@H]1C(=O)[C@@]2(O[Si](C(C)C)(C(C)C)C(C)C)CC[C@@H]1C[C@H]2NC(=O)OCC(Cl)(Cl)Cl,56.5 µM (inactive),> 100 µM (inactive),> 100 µM (inactive),90.8 µM (inactive),> 100 µM (inactive),41.5 µM (inactive),45.3 µM (inactive),,> 100 µM (inactive),,> 100 µM (inactive),35.4 µM (inactive),> 100 µM (inactive),> 100 µM (inactive),,> 100 µM (inactive),> 100 µM (inactive),> 100 µM (inactive),> 100 µM (inactive)
CCN(C(=N)C#N)c1ccccc1,> 100 µM (inactive),> 100 µM (inactive),> 100 µM (inactive),> 100 µM (inactive),> 100 µM (inactive),47.2 µM (inactive),> 100 µM (inactive),> 100 µM (inactive),> 100 µM (inactive),13.6 µM (inactive),> 100 µM (inactive),> 100 µM (inactive),> 100 µM (inactive),> 100 µM (inactive),> 100 µM (inactive),> 95.3 µM (inactive),,,
NC1(C(=O)O)CCC(C(=O)O)CC1 (stereo not given),> 100 µM (inactive),> 100 µM (inactive),> 100 µM (inactive),> 100 µM (inactive),> 100 µM (inactive),> 100 µM (inactive),> 100 µM (inactive),> 100 µM (inactive),> 100 µM (inactive),> 100 µM (inactive),> 100 µM (inactive),> 100 µM (inactive),> 100 µM (inactive),> 100 µM (inactive),> 100 µM (inactive),> 100 µM (inactive),,,
NCCCN1CCN(CCCNc2ccc3ncn4c5ccccc5c(=O)c2c34)CC1,5.28 µM (inactive),1.87 µM (inactive),1.71 µM (inactive),4.07 µM (inactive),3.13 µM (inactive),0.875 µM (active),0.826 µM (active),,,1.42 µM (inactive),1.26 µM (inactive),1.21 µM (inactive),0.791 µM (active),4.2 µM (inactive),2.85 µM (inactive),0.481 µM (active),1.46 µM (inactive),3.16 µM (inactive),13.7 µM (inactive)
Cc1cc(N(CCC#N)CCC#N)ccc1/N=N/c1ccc([N+](=O)[O-])cc1,> 100 µM (inactive),23 µM (inactive),> 100 µM (inactive),47.2 µM (inactive),> 10 µM (inactive),25.1 µM (inactive),65.8 µM (inactive),32.5 µM (inactive),> 100 µM (inactive),> 100 µM (inactive),> 100 µM (inactive),> 100 µM (inactive),> 10 µM (inactive),39.8 µM (inactive),> 100 µM (inactive),> 100 µM (inactive),,,
CO[C@]12CC(=O)C3(C(C[C@H]4CC5CCC6=CC(=O)CC[C@]6(OC(C)=O)C5C[C@@]43C)C1)C1C[C@H]3[C@@H]4CCC5=CC(=O)CC[C@]5(OC(C)=O)[C@H]4CC[C@]3(C)C12 (stereo not given in full),> 100 µM (inactive),> 100 µM (inactive),> 100 µM (inactive),> 100 µM (inactive),> 100 µM (inactive),> 100 µM (inactive),> 100 µM (inactive),,,> 100 µM (inactive),> 100 µM (inactive),> 100 µM (inactive),39.4 µM (inactive),> 100 µM (inactive),> 100 µM (inactive),19.7 µM (inactive),> 100 µM (inactive),> 100 µM (inactive),> 100 µM (inactive)
